Data taken from the NIST ThermoML archive (doi:10.1016/j.jct.2011.05.033).
Values joined by “and” are separate entries in the source; they are usually repeats but may differ in a detail not shown here. Equal entries are not always repeated. Numbers after ± are expanded uncertainties.

Key:
[1] = xn = mol fraction of the nth substance listed; conditions: 298.15 K, 101 kPa, Liquid, Vibrating tube method
[2] = excess molar enthalpy (molar enthalpy of mixing); xn = mol fraction of the nth substance listed; conditions: 298.15 K, 101 kPa, Liquid, Isothermal Titration Calorimeter

CCCCCCCCn1cc[n+](C)c1.O=S(=O)([N-]S(=O)(=O)C(F)(F)F)C(F)(F)F + CO
Conditions | excess molar enthalpy [kJ/mol] | mass density
[1], x1 = 0.0001 | – | 791.05 ± 1.6 kg/m3
[1], x1 = 0.0218 | – | 882.47 ± 1.8 kg/m3
[1], x1 = 0.0599 | – | 986.86 ± 2 kg/m3
[1], x1 = 0.0837 | – | 1031.65 ± 2.1 kg/m3
[1], x1 = 0.1926 | – | 1153.62 ± 2.4 kg/m3
[1], x1 = 0.2708 | – | 1198.9 ± 2.4 kg/m3
[1], x1 = 0.3019 | – | 1213.08 ± 2.5 kg/m3
[1], x1 = 0.5004 | – | 1267.25 ± 2.6 kg/m3
[1], x1 = 0.8201 | – | 1308.01 ± 2.6 kg/m3
[1], x1 = 0.8355 | – | 1308.78 ± 2.7 kg/m3
[1], x1 = 0.989 | – | 1319.5 ± 2.7 kg/m3
[1], x1 = 1 | – | 1320.55 ± 2.7 kg/m3 and 1320.38 ± 2.7 kg/m3
[2], x2 = 0.0153 | 0.086 ± 0.004 | –
[2], x2 = 0.0302 | 0.168 ± 0.007 | –
[2], x2 = 0.0446 | 0.245 ± 0.01 | –
[2], x2 = 0.0586 | 0.318 ± 0.013 | –
[2], x2 = 0.0721 | 0.386 ± 0.016 | –
[2], x2 = 0.0853 | 0.451 ± 0.018 | –
[2], x2 = 0.0982 | 0.512 ± 0.021 | –
[2], x2 = 0.1106 | 0.57 ± 0.023 | –
[2], x2 = 0.1228 | 0.624 ± 0.025 | –
[2], x2 = 0.1346 | 0.676 ± 0.028 | –
[2], x2 = 0.1461 | 0.725 ± 0.03 | –
[2], x2 = 0.1573 | 0.771 ± 0.031 | –
[2], x2 = 0.1682 | 0.815 ± 0.033 | –
[2], x2 = 0.1788 | 0.856 ± 0.035 | –
[2], x2 = 0.1892 | 0.895 ± 0.036 | –

CCCCCC[n+]1ccn(C)c1.O=S(=O)([N-]S(=O)(=O)C(F)(F)F)C(F)(F)F + CO
Conditions | excess molar enthalpy [kJ/mol] | mass density
[1], x1 = 0.0001 | – | 792.92 ± 1.6 kg/m3
[1], x1 = 0.0002 | – | 792.66 ± 1.6 kg/m3
[1], x1 = 0.0003 | – | 792.92 ± 1.6 kg/m3
[1], x1 = 0.0711 | – | 1017.33 ± 2.1 kg/m3
[1], x1 = 0.0868 | – | 1047.67 ± 2.1 kg/m3
[1], x1 = 0.1772 | – | 1163.23 ± 2.4 kg/m3
[1], x1 = 0.2176 | – | 1195.97 ± 2.4 kg/m3
[1], x1 = 0.2695 | – | 1228.24 ± 2.5 kg/m3
[1], x1 = 0.4991 | – | 1308.41 ± 2.7 kg/m3
[1], x1 = 0.5488 | – | 1318.7 ± 2.7 kg/m3
[1], x1 = 0.5851 | – | 1325.38 ± 2.7 kg/m3
[1], x1 = 1 | – | 1371.91 ± 2.8 kg/m3 and 1371.79 ± 2.8 kg/m3
[2], x2 = 0.0147 | 0.108 ± 0.0045 | –
[2], x2 = 0.029 | 0.21 ± 0.0087 | –
[2], x2 = 0.0429 | 0.309 ± 0.013 | –
[2], x2 = 0.0564 | 0.403 ± 0.017 | –
[2], x2 = 0.0695 | 0.492 ± 0.02 | –
[2], x2 = 0.0823 | 0.578 ± 0.024 | –
[2], x2 = 0.0947 | 0.66 ± 0.027 | –
[2], x2 = 0.1068 | 0.738 ± 0.03 | –
[2], x2 = 0.1186 | 0.812 ± 0.033 | –
[2], x2 = 0.13 | 0.884 ± 0.036 | –
[2], x2 = 0.1412 | 0.952 ± 0.039 | –
[2], x2 = 0.1521 | 1.02 ± 0.042 | –
[2], x2 = 0.1627 | 1.08 ± 0.044 | –
[2], x2 = 0.1731 | 1.14 ± 0.046 | –
[2], x2 = 0.1832 | 1.2 ± 0.049 | –

CCCC[n+]1ccn(C)c1.O=S(=O)([N-]S(=O)(=O)C(F)(F)F)C(F)(F)F + CO
Conditions | excess molar enthalpy [kJ/mol] | mass density [kg/m3]
[1], x1 = 0.0844 | – | 1054.48 ± 2.2
[1], x1 = 0.1155 | – | 1109.91 ± 2.3
[1], x1 = 0.1594 | – | 1168.72 ± 2.4
[1], x1 = 0.1722 | – | 1182.69 ± 2.4
[1], x1 = 0.264 | – | 1259.96 ± 2.6
[1], x1 = 0.6327 | – | 1388.71 ± 2.8
[1], x1 = 0.8245 | – | 1418.09 ± 2.9
[1], x1 = 1 | – | 1436.29 ± 2.9
[2], x2 = 0.0131 | 0.0911 ± 0.0039 | –
[2], x2 = 0.0258 | 0.177 ± 0.0073 | –
[2], x2 = 0.0383 | 0.258 ± 0.011 | –
[2], x2 = 0.0504 | 0.335 ± 0.014 | –
[2], x2 = 0.0622 | 0.407 ± 0.017 | –
[2], x2 = 0.0737 | 0.475 ± 0.019 | –
[2], x2 = 0.0849 | 0.54 ± 0.022 | –
[2], x2 = 0.0959 | 0.601 ± 0.025 | –
[2], x2 = 0.1066 | 0.659 ± 0.027 | –
[2], x2 = 0.1171 | 0.714 ± 0.029 | –
[2], x2 = 0.1273 | 0.765 ± 0.031 | –
[2], x2 = 0.1373 | 0.814 ± 0.033 | –
[2], x2 = 0.147 | 0.86 ± 0.035 | –
[2], x2 = 0.1566 | 0.904 ± 0.037 | –
[2], x2 = 0.1659 | 0.946 ± 0.038 | –

CCn1cc[n+](C)c1.O=S(=O)([N-]S(=O)(=O)C(F)(F)F)C(F)(F)F + CO
Conditions | excess molar enthalpy [kJ/mol] | mass density
[1], x1 = 0.0001 | – | 792.63 ± 1.6 kg/m3
[1], x1 = 0.0732 | – | 1040.6 ± 2.1 kg/m3
[1], x1 = 0.1082 | – | 1115.5 ± 2.3 kg/m3
[1], x1 = 0.1385 | – | 1165.23 ± 2.4 kg/m3
[1], x1 = 0.2145 | – | 1258.12 ± 2.6 kg/m3
[1], x1 = 0.2485 | – | 1289.7 ± 2.6 kg/m3
[1], x1 = 0.2968 | – | 1325.28 ± 2.7 kg/m3
[1], x1 = 0.3388 | – | 1351.25 ± 2.8 kg/m3
[1], x1 = 0.6002 | – | 1451 ± 3 kg/m3
[1], x1 = 0.6355 | – | 1459.63 ± 3 kg/m3
[1], x1 = 0.7925 | – | 1487.15 ± 3 kg/m3
[1], x1 = 0.837 | – | 1497.28 ± 3.1 kg/m3
[1], x1 = 1 | – | 1518.63 ± 3.1 kg/m3 and 1518.58 ± 3.1 kg/m3
[2], x2 = 0.0118 | 0.066 ± 0.003 | –
[2], x2 = 0.0233 | 0.13 ± 0.005 | –
[2], x2 = 0.0346 | 0.19 ± 0.008 | –
[2], x2 = 0.0456 | 0.248 ± 0.01 | –
[2], x2 = 0.0563 | 0.302 ± 0.012 | –
[2], x2 = 0.0668 | 0.355 ± 0.015 | –
[2], x2 = 0.0771 | 0.404 ± 0.017 | –
[2], x2 = 0.0872 | 0.452 ± 0.019 | –
[2], x2 = 0.097 | 0.497 ± 0.02 | –
[2], x2 = 0.1067 | 0.54 ± 0.022 | –
[2], x2 = 0.1161 | 0.581 ± 0.024 | –
[2], x2 = 0.1253 | 0.619 ± 0.025 | –
[2], x2 = 0.1343 | 0.656 ± 0.027 | –
[2], x2 = 0.1432 | 0.692 ± 0.028 | –
[2], x2 = 0.1519 | 0.725 ± 0.03 | –

CO [methanol] + CCCCCCCCCCn1cc[n+](C)c1.O=S(=O)([N-]S(=O)(=O)C(F)(F)F)C(F)(F)F
Conditions | mass density [kg/m3]
[1], x2 = 0 | 793.17 ± 1.6

CO [methanol] + CCCCCCCCn1cc[n+](C)c1.O=S(=O)([N-]S(=O)(=O)C(F)(F)F)C(F)(F)F
Conditions | mass density [kg/m3]
[1], x2 = 0 | 792.64 ± 1.6

CO [methanol] + CCCCCC[n+]1ccn(C)c1.O=S(=O)([N-]S(=O)(=O)C(F)(F)F)C(F)(F)F
Conditions | mass density [kg/m3]
[1], x2 = 0 | 792.66 ± 1.6

CO [methanol] + CCCC[n+]1ccn(C)c1.O=S(=O)([N-]S(=O)(=O)C(F)(F)F)C(F)(F)F
Conditions | mass density [kg/m3]
[1], x2 = 0 | 792.92 ± 1.6

CO [methanol] + CCn1cc[n+](C)c1.O=S(=O)([N-]S(=O)(=O)C(F)(F)F)C(F)(F)F
Conditions | mass density [kg/m3]
[1], x2 = 0 | 794.62 ± 1.6
